The values that follow come from patent US7935530B2, “Polyamides with tail structures capable of binding DNA” (California Institute of Technology, priority 2006, dated 2011).

Data set [1] relates to HIF-1α occupancy at the VEGF HRE. In words: Chromatin immunoprecipitation with anti-HIF1α, U251 cells, VEGF HRE. The format is cell-based, human. Particulars: DFO-induced, polyamides 1 μM, echinomycin 100 nM. The protocol: Cells were plated on 15 cm diameter culture dishes and left to attach overnight. Polyamides were incubated with the cells for 48 h, and the cells were incubated for an additional 16 h after the addition of DFO to a final concentration of 300 μM. Cells were then treated with 1% formaldehyde for 10 min. Chromatin was isolated and sheared. HIF-1 antibodies (Novus Biologicals) were used to immunoprecipitate HIF-1 bound DNA fragments. After crosslink reversal, PCRs using primers flanking the HRE of VEGF were used to assess enrichment of bound fragments as compared to mock-precipitated (no antibody) controls. PCRs were monitored either using SYBR Green PCR Master Mix (Applied Biosystems) on an ABI 7300 instrument, or directly visualized using gel electrophoresis.
U251 cells were plated in 15 cm diameter plates and left to attach overnight. Media, time course, DFO, polyamide, echinomycin, and siRNA treatments were as described above. After the 16 hour DFO treatment, cells were treated with 1% formaldehyde for 10 minutes. Chromatin was isolated and sheared. HIF-1α antibodies (Novus Biologicals) were used to immunoprecipitate HIF-1-bound DNA fragments. After crosslink reversal, PCRs using primers targeted to the regions of interest were used to assess enrichment of bound fragments as compared to mock-precipitated (no antibody) controls. PCRs were monitored either using SYBR Green PCR Master Mix (Applied Biosystems) on an ABI 7300 instrument, or directly visualized using gel electrophoresis. The following primers were used: VEGF, L 5′-CCTTTGGGTTTTGCCAGA-3′ (SEQ ID NO:28), R 5′-CCAAGTTTGTGGAGCTGA-3′ (SEQ ID NO:29); CA9, L 5′-AAAAGGGCGCTCTGTGAGT-3′ (SEQ ID NO:30), R 5′-GCTGACTGTGGGGTGTCC-3′ (SEQ ID NO:31); PGK1, L 5′-CCCCTAAGTCGGGAAGGTT-3′ (SEQ ID NO:32), R 5′-[…]-3′ (SEQ ID NO:33).

The next data set concerns CA9. In words: HIF-1 induced gene expression, U251 cells (Table 3), CA9. The format is cell-based, human. Particulars: HRE gctgTACGTGcatt; E 100 nM, 11.1 and 11.3 1 μM. The method, then:
(§1) U251 cells were plated in 24-well plates at a density of 20−30×10^3 cells per well (40−60×10^3 cells/ml) in RPMI (ATCC) supplemented with 5% FBS (Irvine Scientific). After 24 hours, polyamides were added to the adhered cells in cell media solutions at the appropriate concentration and incubated with the cells for 48 hours. […] When appropriate, echinomycin was added two hours prior to DFO stimulation. Isolation of RNA and subsequent cDNA synthesis were as previously described (19). When appropriate, HIF-1α siRNA (HIF-1α validated stealth duplex, Invitrogen) or mismatch control siRNA with similar GC content (Invitrogen) was transfected 48 hours prior to RNA isolation. Transfection of siRNA was achieved using Lipofectamine 2000 (Invitrogen) according to manufacturer's protocols. Quantitative real-time RT-PCR was performed using SYBR Green PCR Master Mix (Applied Biosystems) on an ABI 7300 instrument. Target gene mRNA was measured relative to β-glucuronidase as an endogenous control. Primer employed were: VEGF, L 5′[…]-3′ (SEQ ID NO:22), R 5′-GGGTACTCC TGGAAGATGTCC-3′ (SEQ ID NO:23); β-glucuronidase, L 5′-[…]-3′ (SEQ ID NO:24), R 5′-[…]-3′ (SEQ ID NO:25); FLT1, L 5′-[…]-3′ (SEQ ID NO:26), R 5′-[…]-3′ (SEQ ID NO:27).

For another data set, the system named is HeLa cells. In words: HeLa cell growth, cells counted with a hemacytometer. The format is cell-based, human. As to conditions: 1 μM, counted at 24 hour intervals. The method, then: FIG. 10: HeLa cell growth in the presence of polyamides 11, 12, 23, and 24 at 1 μM as a function of time. Cells were counted at 24 hour intervals using a hemacytometer.
For the next data set, the system named is FLT1 HRE. In words: Quantitative DNase I footprint titration on pCSJ-FLT1, FLT1 HRE. The data set is classed as binding. The protocol:
(§2) Quantitative DNase I footprint titration experiments were used to measure the binding affinities of polyamides 11.1, 11.2, 11.3, and echinomycin on 5′ ^32P-labeled fragments of pGL2-VEGF-Luc and pCSJ-FLT1 containing promoter sequences containing the HREs of VEGF and FLT1, respectively. Quantitative DNase I footprint titration experiments were conducted as reported previously (56).

In data set [2] the test system is 5′-ATACGT-3′ sequence within the HRE of the VEGF promoter. In words: Quantitative DNase I footprint titration on pGL2-VEGF-Luc PCR product, VEGF HRE. The data set is classed as binding. Particulars: for Ka at the VEGF HRE: Example 2, pGL2-VEGF-Luc. The protocol: Quantitative DNase I footprint titration experiments were used to determine polyamide-binding affinities (Ka) to the 5′-ATACGT-3′ sequence within the HRE of the VEGF promoter. These experiments were performed using the 5′-^32P-labeled 197 bp PCR amplification product of the plasmid pGL2-VEGF-Luc isolated by non-denaturing gel electrophoresis (16, 21). Quantitative DNase I footprint titration experiments were conducted as reported previously (21).
as §2

In a further data set the test system is TFRC. In words: HIF-1 induced gene expression, U251 cells (Table 3), TFRC. The format is cell-based, human. As to conditions: HRE agcgTACGTGcctc; R siRNA, E 100 nM, 11.1 and 11.3 1 μM; unit not given. The protocol: as §1
A further data set has as its system HIF-1α mRNA. The data set is described as follows: HIF-1α mRNA by quantitative real-time RT-PCR, U251 cells. As to conditions: induced conditions, polyamides 1 μM, echinomycin 100 nM. The data set is classed as cell-based, human. The protocol: as §1
For orientation: In qPCR the cycle at which signal appears reflects the starting amount.

The subject of the next data set is U251 cells. In words: Microarray analysis of gene expression (Affymetrix Human Genome U133 Plus 2.0), DFO-induced U251 cells. As to conditions: for Number of transcripts affected (p ≦ 0.01): down-regulated (fold change ≦ −2.0) / Number of transcripts affected (p ≦ 0.01): down-regulated (fold change ≦ −4.0) / Number of transcripts affected (p ≦ 0.01): up-regulatd (fold change ≧ 4.0) / Number of transcripts affected (p ≦ 0.01): up-regulated (fold change ≧ 2.0): DFO +; for Number of transcripts whose expression is affected by more than 2-fold (p≦0.01): polyamide 1 μM, echinomycin 100 nM, normalized to DFO-treated controls. The format is cell-based. The method, then: One potential limitation to the use of hairpin-polyamides for gene regulation is binding site size and specificity for match versus mismatch sites, which may result in prohibitively large numbers of affected genes. To examine this, the global effects of polyamide treatment on hypoxia-induced gene expression were measured using Affymetrix Human Genome U133 Plus 2.0 Arrays containing oligonucleotide sequences representing more than 50,000 transcripts. To establish a benchmark for comparison, the effects of HIF-1α siRNA and echinomycin were also measured. Experiments were conducted in triplicate, and gene expression levels normalized to DFO-treated controls. Cells not treated with DFO were normalized to DFO-treated controls.
U251 cells were plated in 12-well plates at a density of 40-60×10^3 cells per well. Media, time course, DFO, polyamide, echinomycin, and siRNA treatments were as described above. RNA was isolated as previously described. Further sample preparation for microarray experiments was carried out at the Millard and Muriel Jacobs Gene Expression Facility at Caltech. Labeled mRNA was hybridized to Affymetrix Human 133 arrays according to established protocols. Gene expression was analyzed using Resolver (Rosetta Biosoftware, Seattle).

Where “and” joins values, the source holds several entries; their conditions need not be identical. Identical values can stand only once. Entries after “also recorded” stand apart in the source; their conditions may differ. Like-named read-outs stand apart in the source and are kept apart here.

For `CN(CCCNC(=O)c1cccc(C(=O)O)c1)CCCNC(=O)c1cc(NC(=O)c2cc(NC(=O)c3cc(NC(=O)c4nc(NC(=O)[C@H](N)CCNC(=O)c5cc(NC(=O)c6cc(NC(=O)c7nc(NC(=O)c8nccn8C)cn7C)cn6C)cn5C)cn4C)cn3C)cn2C)cn1C` [Polyamide 23], the “HIF-1α occupancy at the VEGF HRE (chromatin immunoprecipitation)” value (“HIF-1α occupancy at the VEGF HRE” below) in data set [1] is “more modest effect compared with that of its match congener 11”; in data set [1] (listed as 11.3), “less so; also recorded: only modestly affected”. In addition, the “HIF-1 induced genes affected: CA9” value with CA9 is reported as -1.1. Also, the HeLa cell growth entry with HeLa cells is “not inhibited”. Also, in the data set with FLT1 HRE, the “Ka at the FLT1 HRE” value is given as “does not bind the FLT1 HRE with a measurable Ka”. Further, the “Ka at the VEGF HRE” value in data set [2] was 8.0 (±1.0)×10^8 M^−1. For the same compound, the “HIF-1 induced genes affected: TFRC” value in the data set with TFRC is 1.4.
For `CS[C@H]1SC[C@H]2C(=O)N(C)[C@@H](C(C)C)C(=O)OC[C@@H](NC(=O)c3cnc4ccccc4n3)C(=O)N[C@@H](C)C(=O)N(C)[C@@H]1C(=O)N(C)[C@@H](C(C)C)C(=O)OC[C@@H](NC(=O)c1cnc3ccccc3n1)C(=O)N[C@@H](C)C(=O)N2C` [echinomycin, reference compound], the “Effect on HIF-1α mRNA (in words)” value in the data set with HIF-1α mRNA is listed as “minimally affected”. Besides, in data set [1], the “HIF-1α occupancy at the VEGF HRE” value is on record as “decreased”. Moreover, in the data set on CA9, the “HIF-1 induced genes affected: CA9” value is -9.4. For the same compound, in the data set on U251 cells, the “Number of transcripts affected (p ≦ 0.01): down-regulated (fold change ≦ −2.0)” value was 7,426, the “Number of transcripts affected (p ≦ 0.01): down-regulated (fold change ≦ −4.0)” value is 4,133, the “Number of transcripts affected (p ≦ 0.01): up-regulatd (fold change ≧ 4.0)” value is recorded as 413 and the “Number of transcripts affected (p ≦ 0.01): up-regulated (fold change ≧ 2.0)” value is 3,480. Besides, in the data set on U251 cells (DFO-induced U251), the “Number of the 31 previously identified direct HIF-1 target transcripts (induced at least 1.5-fold by DFO) down-regulated / inhibited” value was 31, the “Number of the 297 transcripts induced by DFO at least 4-fold that are inhibited by ≧2-fold (p≦0.01)” value amounted to 263 and the “Number of transcripts whose expression is affected by more than 2-fold (p≦0.01)” value is on record as 10,906. The “Ka at the FLT1 HRE” value in the data set on FLT1 HRE was 2.9 (±0.7)×10^7 M^−1. The “Ka at the VEGF HRE” value in data set [2] is on record as 8.4 (±2.1)×10^6 M^−1. Moreover, the “HIF-1 induced genes affected: TFRC” value in the data set with TFRC is −2.3.
In the case of `CN(CCCNC(=O)c1cccc(C(=O)O)c1)CCCNC(=O)c1cc(NC(=O)c2cc(NC(=O)c3nc(NC(=O)c4cc(NC(=O)[C@H](N)CCNC(=O)c5nc(NC(=O)c6cc(NC(=O)c7cc(NC(=O)c8sccc8Cl)cn7C)cn6C)cn5C)cn4C)cn3C)cn2C)cn1C` [Polyamide 11], the “Effect on HIF-1α mRNA (in words)” value in the data set on HIF-1α mRNA was “minimally affected”. Besides, in data set [1], the “HIF-1α occupancy at the VEGF HRE” value is given as “decreased occupancy of HIF-1α at the VEGF HRE; also recorded: inhibited”. Moreover, the “HIF-1α occupancy at the VEGF HRE” value in data set [1] (listed as 11.1) is given as “decreased”. The “HIF-1 induced genes affected: CA9” value with CA9 was -2.1. The HeLa cell growth result with HeLa cells was “not inhibited”. Besides, in the data set on U251 cells, the “Number of transcripts affected (p ≦ 0.01): down-regulated (fold change ≦ −2.0)” value is on record as 1,575, the “Number of transcripts affected (p ≦ 0.01): down-regulated (fold change ≦ −4.0)” value came to 336, the “Number of transcripts affected (p ≦ 0.01): up-regulatd (fold change ≧ 4.0)” value is 57 and the “Number of transcripts affected (p ≦ 0.01): up-regulated (fold change ≧ 2.0)” value is 709. In the data set with U251 cells (DFO-induced U251), the “Number of the 31 previously identified direct HIF-1 target transcripts (induced at least 1.5-fold by DFO) down-regulated / inhibited” value is 14, the “Number of the 297 transcripts induced by DFO at least 4-fold that are inhibited by ≧2-fold (p≦0.01)” value is 69, the “Share of the 297 transcripts induced by DFO that were inhibited” value is listed as “Approximately 23%” and the “Number of transcripts whose expression is affected by more than 2-fold (p≦0.01)” value is 2,284. In the data set with U251 cells (U251 microarray), the “Affected transcripts (2-fold, p≦0.01) after eliminating all transcripts affected by DFO alone (1.5-fold, p≦0.01)” value is recorded as 1,626 and the “Share of interrogated / assayed transcripts affected” value is on record as “less than 5%”. For the same compound, the “Ka at the FLT1 HRE” value with FLT1 HRE (listed as 11.1) was 2.7 (+0.2)×10^9 M^−1 and 2.7 (±0.2)×10^9 M^−1. Besides, the “Binding affinities (M-1), 5′-TACGTG-3′ (equilibrium association constants)” value in data set [2] (mean of three DNase I footprint titration experiments, standard deviations in parentheses, 197 bp PCR product of pGL2-VEGF-Luc) is 2.6 (±0.4) × 10^10 M-1. Further, the “HIF-1 induced genes affected: TFRC” value in the data set with TFRC worked out at 1.1.
